Experimental data as given in patent publication US20230134843A1, “TREATMENT OF STEM CELL DEFICIENCY” (OSPEDALE SAN RAFFAELE S.R.L., priority 2020, published 2023).
“Also recorded” adds a separate entry of the source.

System: stem cell-like cells
Assay: Stem cell-like cells detection (BrdU and p63 staining), stem cell deficiency model
Format: in vivo, mice
Conditions: Fosaprepitant 1 mg/mL (FOSA 1)
Excerpt: Eight-week-old male mice C57BL6/N (Charles River, Calco, Italy) (WT mice, n=18) and Tac1-deficient B6.Cg-Tac1tm1Bbm/J (Jackson Laboratories, Bar Harbor, Me., USA) (TAC1-KO mice, n=18) were used in all experiments. TAC1-KO mice are homozygous null for the Tac1 gene. […] The corneal thickness and transparency as well as the corneal nerve length are similar to C57BL/6 mice [Barbariga M, Rabiolo A, Fonteyne P, Bignami F, Rama P, Ferrari G. The effect of aging on nerve morphology and substance P expression in mouse and human corneas. Investig Ophthalmol Vis Sci 2018; 59:5329-35. https://doi.org/10.1167/iovs.18-24707.]. Each animal was anesthetized with an intraperitoneal injection of tribromoethanol (250 mg/kg) and a topical anesthetic was applied to their ocular surface prior to the surgical procedure. Total disepithelization was performed based on the model previously described [Amirjamshidi H, Milani B Y, Sagha H M, Movahedan A, Shafiq M A, Lavker R M, et al. Limbal fibroblast conditioned media: A non-invasive treatment for limbal stem cell deficiency. Mol Vis 2011; 17:658], using a blunt spatula to scrap the entire corneal epithelium, including the limbus. Then, fluorescein staining was used to confirm complete removal of the corneal epithelium under the blue light of a slit-lamp microscope. After wounding, eyes were treated with ophthalmic moxifloxacin 1 time/day for 1 week to […]. Fourteen days after disepithelization mice were euthanized using carbon dioxide inhalation and subsequent cervical dislocation. Corneas were collected for immunostaining and western blot analysis. All experimental protocols were approved by the Animal Care and Use Committee of the Istituto di Ricovero e cura a Carattere Scientifico San Raffaele Scientific Institute, in accordance with the ARVO Statement for the Use of Animals in Ophthalmic and Vision Research.
To evaluate the pharmacological inhibition of Substance P, mice received 10 μL of Fosaprepitant topically (IVEMEND, Merck Sharp & Dohme Ltd., Hoddes-don, UK) in two different concentrations: 0.1 mg/mL (FOSA 0.1, n=5) or 1 mg/mL (FOSA 1, n=5) 4 times/day every 2 hours […]. Control animals received instead 10 μL of vehicle (PBS) (WT, n=5). The treatments started the same day that corneal disepithelization was performed.
Immediately after corneal dispepithelization, animals were intraperitoneally injected with […] (BrdU) (50 ug/g body weight, ab142567, Abcam) twice a day (9 a.m and 4 p.m), for 7 days. […] The images were acquired by epifluorescence microscope (Leica CTR5500; Leica Microsystems, Wetzlar, Germany) (20×) and analyzed with Image J software. A negative control using only the secondary antibody was used to establish a fluorescence threshold. […]

## C[C@@H](O[C@H]1OCCN(Cc2nc(=O)n(P(=O)(O)O)[nH]2)[C@H]1c1ccc(F)cc1)c1cc(C(F)(F)F)cc(C(F)(F)F)c1 [Fosaprepitant, [3-{[(2R,3S)-2-[(1R)-1-[3,5-bis(trifluoromethyl)phenyl]ethoxy]-3-(4-fluorophenyl)morpholin-4-yl]methyl}-5-oxo-2H-1,2,4-triazol-1-yl]phosphonic acid]
  p63 content compared to WT: no differences
p<0.01
  BrdU staining in the corneal epithelium compared to WT: significant increase
  number of stem cell-like cells (epithelial stem cells) compared to WT: increase number
p<0.05
  percentage of p63/BrdU colocalization compared to WT: increased percentage; also recorded: higher percentage
